From patent US20020054941A1, “Methods and compositions to enhance tenderness and value of meat” (The Board of Regents of the University of Nebraska, priority 2000, published 2002)
Entries after “also recorded” stand apart in the source; their conditions may differ. Marks after values point to notes of the source that are not given here.

Experiments:
[1] = test system: supraspinatus beef muscles; assay: Warner-Bratzler shear force, pre-rigor injection of whole muscle; settings: 200 mM
Method: (§1) Experiment were conducted to test the effects of pre-rigor injection of several compounds. Effects of these compounds on pH, color, tenderness and other related traits of low-value beef cuts were investigated. Ten steers (22 to 24 mo of age, 515 to 676 kg live weight) were slaughtered according to current industry procedures. Pre-rigor semimembranosus (from the round), triceps brachii and supraspinatus muscles (from the chuck) were excised, after evisceration (approximately 1 hour post-mortem), from both sides of the carcass. Muscle sections were randomly assigned to the treatments: sodium citrate (NaC; 200 mM), sodium fluoride (NaF; 200 mM), sodium acetate (NaA; 200 mM), and calcium chloride (CaCl2; 300 mM). The control samples remained on the carcass at 2° C. for 24 hours to simulate commercial conditions. Following a cooling, control muscles were removed from each carcass (4 replicates), vacuum packaged and transferred to the holding cooler with the other cuts at 2° C. Calcium chloride treatment was included to be compared with the other treatments.
(§2) At 2 hours post-mortem, each muscle was injected with a volume equal to 8% of the muscle weight using a four-needle hand injector. The temperature of solutions were 4° C. Each muscle was individually treated (2% of solution was added to give a total of 10% of muscle weight) and tumbled in a 75-pound capacity tumbler (Röschermatic, Oshabrück, Germany) for 30 min to insure uniform distribution of the solution.
(§3) Tenderness of samples was evaluated by measuring Warner-Bratzler shear force. Steaks (2.54-cm thick) from the middle of each muscle were cut and frozen at 3, 7 and 14 days postmortem. Frozen steaks (2.54 cm thick) were thawed at 4° C. for 24 hours and cooked on Farberware Open Hearth Broilers (Model 350A Walter Kidde, Bronx, N.Y.) to an internal temperature of 40° C., turned, and cooked to a final internal temperature of 70° C. (AMSA, 1995). Temperature was monitored using an OMEGA thermocouple thermometer type T (Omega Engineering, Inc., Stamford, Conn.) inserted into the geometric center of a steak. The cooked steaks were chilled 2 hours at 2° C., and then 8 cores (1.27-cm diameter) were removed parallel to the muscle fiber orientation. Cores were sheared once each on an Instron Universal Testing Machine model 55R1123 (Instron, Canton, Mass.) with a Warner-Braztler attachment. The Instron was set up with a 500 kg load cell, full scale load=1 (0-10 kg), and crosshead speed=250 mm/mim.

[2] = test system: semimembranosus beef muscles; assay: as above; settings: 200 mM, calcium chloride 300 mM
Method: as §1, §2, §3

[3] = test system: triceps brachii beef muscles; assay: as above; settings: 200 mM, calcium chloride 300 mM; for Shear force, 3 d: 3 d postmortem; for Shear force, 7 d: 7 d postmortem
Method: as §1, §2, §3

[4] = test system: spoilage micro-organisms; assay: Microbial stability (logarithmic microbiological growth); settings: for Logarithmic Microbiological Growth Values, difference: difference day 5 - day 0
Method: Thoracic limbs from 14 steers were chilled on the carcass (controls) or removed within 2 hours post-mortem and pumped to 10% of muscle weight with water, 200 mM or 400 mM sodium citrate solutions. The injections were performed at various sites along the muscle. The control remained on the carcass. Muscle pH and temperature were measured immediately prior to pumping. Experimental and control muscles were chilled at 2° C. for 24 hours. Steaks (2.54 cm thick) were removed after 24 hours from the Infraspinatus, Supraspinatus and Triceps brachii muscles and were either frozen immediately or aged for another 6 days and then evaluated. A consumer panel evaluated palatability juiciness, tenderness, connective tissue amount, and flavor desirability) on Infraspinatus and Triceps brachii steaks using 9-point hedonic scales (1 being very undesirable and 9 being very desirable) for each trait. Warner-Bratzler shear force values were determined on 1.27 cm-diameter cores from steaks that were broiled to an internal temperature of 70° C.
There were no differences in initial microbial load among the treatments.

[5] = test system: sternomandibularis beef muscles; assay: Shear force of pre-rigor injected sectioned muscle; settings: 200 mM (glucose, calcium chloride 300 mM)
Method: Pre-rigor beef muscle was sectioned into 100 g. samples at approximately 3 hours post-mortem. The pieces were injected with 10 mL of treatment solution followed by marination in the solution for 24 hours at 2° C. before testing pH and recording visual color of the muscle sections. For evaluation of shear force, samples were thawed, cooked, sliced (approximately 6 mm by 6 mm) and then cooled before readings were taken. The solutions used for this procedure were as described above for homogenized muscle.
Pre-rigor beef muscle was sectioned and the sections were injected at approximately 1 hour post-mortem with a volume of treatment solution equal to 10% of the muscle weight. Objective color measurements were taken on pieces of each muscle section and the pieces were then frozen, powdered and stored at −80° C. for up to 10 days before testing pH and analyzing oxidation-reduction potential. Shear force was evaluated as described immediately above. Solutions used in this procedure were as follows: sodium citrate (200 mM), sodium acetate (200 mM), glucose (300 mM), calcium citrate (200 mM), calcium chloride (300 mM), injection with water, and no injection (control). The calcium citrate solution was prepared as a suspension using 0.25% carrageenan and 200 mM calcium citrate due to its insolubility in water. However, use of calcium citrate can be optimized by increasing solubility by means known in the art.

O=C([O-])CC(O)(CC(=O)[O-])C(=O)[O-].[Na+].[Na+].[Na+] [Sodium citrate, sodium citrate]
Shear force, 3 d ([1]; 3 d postmortem, calcium chloride 300 mM): 5.06^c kg
Shear force, 7 d ([1]; 7 d postmortem, calcium chloride 300 mM): 4.89^b kg
reduced shear force compared with controls ([1]; supraspinatus, 3 days post-mortem, CaCl2 300 mM): 2.22 kg
Shear force, 3 d ([2]; 3 d postmortem): 5.14 kg
Shear force, 7 d ([2]; 7 d postmortem): 4.41 kg
Shear force, 14 d ([2]; 14 d postmortem): 3.96 kg
Shear force, 3 d [3]: 4.54^c kg
Shear force, 3 d ([3]; listed as NaC): most tender meat; also recorded: more tender
Shear force, 7 d [3]: 4.20^c kg
Shear force, 7 d ([3]; listed as NaC): lower shear force values than CaCl2
Shear force, 14 d ([3]; 14 d postmortem): 3.69 kg
Logarithmic Microbiological Growth Values ([4]; 200 mM, day 0): 2.58
Logarithmic Microbiological Growth Values ([4]; 200 mM, day 5): 5.45^b
Logarithmic Microbiological Growth Values, difference ([4]; 200 mM): 2.88^b
Logarithmic Microbiological Growth Values ([4]; 400 mM, day 0): 2.72
Logarithmic Microbiological Growth Values ([4]; 400 mM, day 5): 5.11^b
Logarithmic Microbiological Growth Values, difference ([4]; 400 mM): no greater microbial growth than the control
Logarithmic Microbiological Growth Values, difference ([4]; 400 mM, listed as NaCit): 2.40^a,b
Shear force, kg (72 h) [5]: 11.09^ab kg
